Experimental data reported in ChEMBL document CHEMBL1135310, “Investigation of the PDZ domain ligand binding site using chemically modified peptides” (Bioorg Med Chem Lett, 2002).
Numbered stars: 1 amine (or outer) side, 2 acyl side, 3 side chain; on linkers, the order of the positions; unused ones are H or OH. Square brackets hold non-standard residues; d marks the D form. Peptide text beside a SMILES is read from it. * marks the point of attachment. X2 = C[C@@H](O)[C@H](O)[C@H](N[*:1])C(=O)[*:2]; X1 = O=C([C@@H](N[*:1])[C@@H](O)CCO)[*:2]; NMeW = CN[C@@H](Cc1c[nH]c2ccccc12)C(=O)O; NMeI = CC[C@H](C)[C@H](NC)C(=O)O; NMeT = CN[C@H](C(=O)O)[C@@H](C)O; NMeQ = CN[C@@H](CCC(N)=O)C(=O)O; NMeV = CN[C@H](C(=O)O)C(C)C; Valol = CC(C)[C@@H](CO)N*

Experiments:
[1] = biological target: T1, Membrane-associated guanylate kinase, WW and PDZ domain-containing protein 3 (Homo sapiens, UniProt Q5TCQ9); assay: Inhibitory concentration for MAGI-3 PDZ2 domain
T1 sequence (Q5TCQ9 whole entry): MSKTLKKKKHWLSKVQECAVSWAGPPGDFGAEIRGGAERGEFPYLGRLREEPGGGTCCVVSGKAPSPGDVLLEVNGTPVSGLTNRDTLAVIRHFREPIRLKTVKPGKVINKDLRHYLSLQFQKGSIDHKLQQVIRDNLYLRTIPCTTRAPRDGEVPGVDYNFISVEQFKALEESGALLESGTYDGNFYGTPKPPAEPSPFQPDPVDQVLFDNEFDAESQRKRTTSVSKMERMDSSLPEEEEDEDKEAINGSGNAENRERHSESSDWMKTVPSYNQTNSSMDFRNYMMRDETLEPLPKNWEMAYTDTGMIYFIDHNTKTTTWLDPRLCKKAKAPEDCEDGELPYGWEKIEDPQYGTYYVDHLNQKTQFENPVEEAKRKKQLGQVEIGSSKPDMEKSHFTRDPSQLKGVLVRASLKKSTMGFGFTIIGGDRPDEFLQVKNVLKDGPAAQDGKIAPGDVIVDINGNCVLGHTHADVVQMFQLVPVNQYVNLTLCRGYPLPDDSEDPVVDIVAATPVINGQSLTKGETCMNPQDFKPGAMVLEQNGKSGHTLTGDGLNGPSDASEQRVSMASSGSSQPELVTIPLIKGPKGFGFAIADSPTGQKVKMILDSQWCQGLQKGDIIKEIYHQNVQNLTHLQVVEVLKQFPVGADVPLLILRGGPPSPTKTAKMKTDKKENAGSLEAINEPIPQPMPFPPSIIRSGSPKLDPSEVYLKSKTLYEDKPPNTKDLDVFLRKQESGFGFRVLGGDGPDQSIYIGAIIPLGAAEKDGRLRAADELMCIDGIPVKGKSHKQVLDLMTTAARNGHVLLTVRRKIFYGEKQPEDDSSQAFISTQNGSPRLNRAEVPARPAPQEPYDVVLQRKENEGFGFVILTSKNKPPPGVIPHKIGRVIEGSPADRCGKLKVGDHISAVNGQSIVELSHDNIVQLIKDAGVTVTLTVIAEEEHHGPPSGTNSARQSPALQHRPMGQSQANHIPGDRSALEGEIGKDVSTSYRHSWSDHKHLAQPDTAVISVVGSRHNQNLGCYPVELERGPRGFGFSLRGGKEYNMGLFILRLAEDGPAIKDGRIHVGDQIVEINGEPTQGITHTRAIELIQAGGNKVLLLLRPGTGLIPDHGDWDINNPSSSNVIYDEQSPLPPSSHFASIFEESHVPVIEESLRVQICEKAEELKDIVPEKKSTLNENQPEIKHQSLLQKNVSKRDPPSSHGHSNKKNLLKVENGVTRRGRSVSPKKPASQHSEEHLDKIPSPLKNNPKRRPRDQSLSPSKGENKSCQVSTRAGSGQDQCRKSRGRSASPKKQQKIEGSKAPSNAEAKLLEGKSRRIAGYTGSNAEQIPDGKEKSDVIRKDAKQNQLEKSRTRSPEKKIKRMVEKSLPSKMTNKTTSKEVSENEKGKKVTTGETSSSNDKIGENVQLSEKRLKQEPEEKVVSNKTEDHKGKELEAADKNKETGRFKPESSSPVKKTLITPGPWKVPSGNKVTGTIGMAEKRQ

[2] = biological target: T1, Membrane-associated guanylate kinase, WW and PDZ domain-containing protein 3; assay: Inhibitory concentration for MAGI-3 PDZ2 domain; ND denotes not detected
[3] = biological target: T1, Membrane-associated guanylate kinase, WW and PDZ domain-containing protein 3; assay: Dissociation constant for binding to MAGI-3 PDZ2 domain

IC50 [1] | IC50 [2] | Kd [3] | Compound
42.1 µM | – | – | CC[C@H](C)[C@H](NC(=O)[C@H](CCC(N)=O)NC(=O)[C@@H](NC(C)=O)[C@H](C)O)C(=O)N[C@@H](C(=O)N[C@@H](Cc1c[nH]c2ccccc12)C(=O)N[C@H](C(=O)NO)C(C)C)[C@H](C)O
14.8 µM | – | – | CC[C@H](C)[C@H](NC(C)=O)C(=O)N[C@H](C(=O)N[C@@H](Cc1c[nH]c2ccccc12)C(=O)N[C@H](C(=O)O)C(C)C)[C@@H](C)O (Ac-ITWV-OH)
10.6 µM | – | – | CC[C@H](C)[C@H](NC(=O)[C@H](CCC(N)=O)NC(=O)[C@@H](NC(C)=O)[C@@H](C)O)C(=O)N[C@H](C(=O)N(C)[C@@H](Cc1c[nH]c2ccccc12)C(=O)N[C@H](C(=O)O)C(C)C)[C@@H](C)O (Ac-TQIT[NMeW]V-OH)
20.4 µM | – | – | CC[C@H](C)[C@@H](C(=O)N[C@H](C(=O)N[C@@H](Cc1c[nH]c2ccccc12)C(=O)N[C@H](C(=O)O)C(C)C)[C@@H](C)O)N(C)C(=O)[C@H](CCC(N)=O)NC(=O)[C@@H](NC(C)=O)[C@@H](C)O (Ac-TQ[NMeI]TWV-OH)
9.8 µM | – | – | CC[C@H](C)[C@H](NC(=O)[C@H](CCC(N)=O)N(C)C(=O)[C@@H](NC(C)=O)[C@@H](C)O)C(=O)N[C@H](C(=O)N[C@@H](Cc1c[nH]c2ccccc12)C(=O)N[C@H](C(=O)O)C(C)C)[C@@H](C)O (Ac-T[NMeQ]ITWV-OH)
– | Not detected | – | CC[C@H](C)[C@H](NC(=O)[C@H](CCC(N)=O)NC(=O)[C@@H](NC(C)=O)[C@H](C)O)C(=O)NC(C(=O)N[C@@H](Cc1c[nH]c2ccccc12)C(=O)N[C@H](C(=O)O)C(C)C)[C@@H](O)C(C)(C)O (single isomer, unassigned)
– | Not detected | – | CCC(O)[C@H](O)C(NC(=O)[C@@H](NC(=O)[C@H](CCC(N)=O)NC(=O)[C@@H](NC(C)=O)[C@@H](C)O)[C@@H](C)CC)C(=O)N[C@@H](Cc1c[nH]c2ccccc12)C(=O)N[C@H](C(=O)O)C(C)C (single isomer, unassigned)

Continued, compound first:

Compound | IC50 [1] | IC50 [2] | Kd [3]
CC[C@H](C)[C@H](NC(=O)[C@H](CCC(N)=O)NC(=O)[C@@H](NC(C)=O)[C@@H](C)O)C(=O)N[C@H](C(=O)N[C@@H](Cc1c[nH]c2ccccc12)C(=O)N[C@H](CO)C(C)C)[C@@H](C)O (Ac-TQITW-Valol) | – | Not detected | –
CC[C@H](C)[C@H](NC(=O)[C@H](CCC(N)=O)NC(=O)[C@@H](NC(C)=O)[C@@H](C)O)C(=O)N[C@H](C(=O)N[C@@H](Cc1c[nH]c2ccccc12)C(=O)N(C)[C@H](C(=O)O)C(C)C)[C@@H](C)O (Ac-TQITW[NMeV]-OH) | – | Not detected | –
CC[C@H](C)[C@H](NC(=O)[C@H](CCC(N)=O)NC(=O)[C@@H](NC(C)=O)[C@@H](C)O)C(=O)N(C)[C@H](C(=O)N[C@@H](Cc1c[nH]c2ccccc12)C(=O)N[C@H](C(=O)O)C(C)C)[C@@H](C)O (Ac-TQI[NMeT]WV-OH) | 29 µM | – | –
CC[C@H](C)[C@H](NC(=O)[C@H](CCC(N)=O)NC(=O)[C@@H](NC(C)=O)[C@@H](C)O)C(=O)N[C@H](C(=O)N[C@@H](Cc1c[nH]c2ccccc12)C(=O)N[C@H](C(=O)O)C(C)C)[C@@H](O)CCO (Ac-TQI[X1]WV-OH) | – | Not detected | –
CC[C@H](C)[C@H](NC(=O)[C@H](CCC(N)=O)NC(=O)[C@@H](NC(C)=O)[C@@H](C)O)C(=O)N[C@H](C(=O)N[C@@H](Cc1c[nH]c2ccccc12)C(=O)N[C@H](C(=O)O)C(C)C)[C@@H](O)[C@@H](C)O (Ac-TQI[X2]WV-OH) | – | Not detected | –
CC[C@H](C)[C@H](NC(=O)[C@H](CCC(N)=O)NC(=O)[C@@H](NC(C)=O)[C@H](C)O)C(=O)NC(C(=O)N[C@@H](Cc1cn(C)c2ccccc12)C(=O)N[C@H](C(=O)O)C(C)C)[C@H](C)O (single isomer, unassigned) | 34 µM | – | –
CC[C@H](C)[C@H](NC(=O)[C@H](CCC(N)=O)NC(=O)[C@@H](NC(C)=O)[C@@H](C)O)C(=O)NC(C(=O)N[C@@H](Cc1c[nH]c2ccccc12)C(=O)N[C@H](C(=O)O)C(C)C)[C@@H](O)CO (single isomer, unassigned) | 5.1 µM | – | –
Ac-HTQITWV-OH | 4.1 µM | – | –
Ac-QITWV-OH | 4.5 µM | – | –
Ac-TQITWV-OH | 5.2 µM | – | –
H-PFDEDQHTQIAKV-OH [PFDEDQHTQIAKV] | 14.4 µM | – | –
H-PFDEDQHTQITKV-OH | – | – | 1 µM
H-PFDEDQHTQITWV-OH | 0.74 µM | – | 0.02 µM
